Peptide text beside a SMILES is read from it. * marks the point of attachment. X2 = CC(C)(C)OC(=O)NOCC(=O)*
What was measured:
gastric acid secretion [1] = test: Gastric acid secretion increasing effect, methods of Ghosh and Schild and Lai, modified by Pissidis and Clark; type: in vivo; conditions: for Activity, % (gastric acid secretion increasing effect): in comparison with 0.2 μ/100 g i.v. dosage of pentagastrin = 100%
Protocol: The biological activities of the new compounds according to the invention were tested by the methods of Ghosh and Schild (Br. J. Pharmac. Chemoth. 13, 54 (1958) and Lai (Gut. 5, 327 (1964), modified by Pissidis and Clark (Gut. 8, 196 (1967)). The pharmacological tests have shown that the gastric acid secretion provoked by the new compounds is occasionally higher by 20 to 80% than that provoked by the same dosage of pentagastrin. It is particularly remarkable that the new compounds, in contrast with pentagastrin, are resorbed also from the small intenstine, and, when administered to the small intenstine in a dosage of 20 μg/100 g body weight, exert effects similar to that exerted by a 0.2 μg/100 g i.v. dosage of pentagastrin. […] It is also remarkable that some of the new compounds increase the gastric acid secretion after resorption from the rectum.

gastric acid secretion [2] = conditions: in vivo; cited from earlier work

Molecule	Activity, % (gastric acid secretion increasing effect) (gastric acid secretion [1]; 0.2 μg i.v.) [%]	Activity, % (gastric acid secretion increasing effect) (gastric acid secretion [1]; 20 μg rectal) [%]	other results
CSCC[C@H](NC(=O)[C@H](Cc1c[nH]c2ccccc12)NC(=O)CONC(=O)OC(C)(C)C)C(=O)N[C@@H](CC(=O)O)C(=O)N[C@@H](Cc1ccccc1)C(=O)NOCC(=O)O [BOC-O-Gly Met OGly-OH, 2-(2-(tert.-Butoxycarbonyl-aminooxy)-acetyl-L-tryptophyl-L-methionyl-L-aspartyl-L-phenylalanyl-aminooxy)-acetic acid]	25	22	–
CC(C)C[C@H](NC(=O)[C@H](Cc1c[nH]c2ccccc12)NC(=O)CONC(=O)OC(C)(C)C)C(=O)N[C@@H](CC(=O)O)C(=O)N[C@@H](Cc1ccccc1)C(N)=O [BOC-OGly Leu H, 2-(tert.-Butoxycarbonyl-aminooxy)-acetyl-L-tryptophyl-L-leucyl-L-aspartyl-L-phenylalanine-amide] (X2-WLDF-NH2)	124	68	Activity, % (gastric acid secretion increasing effect) (gastric acid secretion [1]; 2.0 μg i.v.): 272%; Activity, % (gastric acid secretion increasing effect) (gastric acid secretion [1]; 20 μg intestinal): 6%
CSCC[C@H](NC(=O)[C@H](Cc1c[nH]c2ccccc12)NC(=O)CCONC(=O)OC(C)(C)C)C(=O)N[C@@H](CC(=O)O)C(=O)N[C@@H](Cc1ccccc1)C(=O)NOCC(=O)O [BOC-β-OAla Met OGly-OH, 2-(3-(tert.-Butoxycarbonyl-aminooxy)-propionyl-L-tryptophyl-L-methionyl-L-aspartyl-L-phenylalanyl-aminooxy)-acetic acid]	32	–	–
CSCC[C@H](NC(=O)[C@H](Cc1c[nH]c2ccccc12)NC(=O)CCNC(=O)OC(C)(C)C)C(=O)N[C@@H](CC(=O)O)C(=O)N[C@@H](Cc1ccccc1)C(N)=O [pentagastrin, BOC--β--Ala-- Trp--Met--Asp--Phe--NH2, reference compound]	100	–	gastric acid secretion when administered enterally (gastric acid secretion [1]; enteral, even in higher dosages): does not increase the gastric acid secretion; activity among known analogs and derivatives of the tetrapeptide-amide / compared with pentagastrin (gastric acid secretion [2]): the most active derivative
H--Trp--Met--Asp--Phe--NH2: carboxy-terminal tetrapeptide-amide, the biologically active center of gastrin	–	–	gastric acid secretion stimulating effect compared with the total hormone (gastrin) (gastric acid secretion [2]): lower by about one order of magnitude

From patent US4172130A, “α-AMINOACYL CONTAINING NEW PEPTIDES WITH GASTRIN EFFECTS AND A PROCESS FOR THE PREPARATION THEREOF” (Richter Gedeon Vegyeszeti Gyar RT, priority 1976, dated 1979)
